Values quoted from earlier work as cited in patent US9511027B1, “Calcium supplement having enhanced absorption” (Delavau L.L.C., priority 2006, dated 2016).

In the case of `[Ca+2]` [calcium], the percent absorption (9 to 18 year olds, Wastney et al. 1996) is listed as 38% and the elemental calcium absorbed (adults, basis of the AIs of 1,000 mg and 1,200 mg, Heaney et al. 1988) is listed as “about 30%”.
